Source: paper PMC5100903, “Tissue Kallikrein Inhibitors Based on the Sunflower Trypsin Inhibitor Scaffold – A Potential Therapeutic Intervention for Skin Diseases” (PLoS ONE, 2016)
Read-outs that look alike come from different tables or passages of the source. Positions of bridges follow the written chain, without caps; N, C: chain ends. Residues, ends and D or L forms follow the SMILES beside them.

Columns and labels:
[1] = target: T1, KLK5 (Homo sapiens, UniProt Q9Y337); assay: biochemical
T1 construct: purchased Novoprotein
T1 sequence (Q9Y337 23-293): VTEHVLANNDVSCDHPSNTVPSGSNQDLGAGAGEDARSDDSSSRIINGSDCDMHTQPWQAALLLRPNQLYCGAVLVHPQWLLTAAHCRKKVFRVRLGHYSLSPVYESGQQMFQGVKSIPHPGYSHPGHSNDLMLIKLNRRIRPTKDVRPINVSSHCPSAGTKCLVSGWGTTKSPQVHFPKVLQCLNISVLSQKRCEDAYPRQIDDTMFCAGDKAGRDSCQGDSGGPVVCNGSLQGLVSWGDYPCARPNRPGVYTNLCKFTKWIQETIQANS
Protocol: (§1) All assays were performed on 96-well microplates and the change in relative fluorescence unit (RFU) was measured by fluorescence spectrometer (BMG FLUOstar OPTIMA). The excitation/emission wavelength was 360/460 nm for the substrate Boc-VPR-AMC (Bachem AG, Hauptstrasse, Switzerland) and MeOSuc-AAPV-AMC (Bachem AG, Hauptstrasse, Switzerland) and 485/520 nm for BODIPY_FL casein (Invitrogen, Carlsbad, US). Stock solution of Boc-VPR-AMC was prepared by dissolving the solid in dimethyl sulfoxide to 100 mM and 10 mM for MeOSuc-AAPV. For BODIPY_FL casein, it was reconstituted to 1 mg/mL in 1xPBS. […] The % of inhibition was calculated by the following equation: % of Inhibition=(1−(Sample RFU − Min RFU)/(Max RFU − Min RFU)) X100
(§2) Each inhibition curves were done in triplicates with a minimum of five concentration points fitted. Fitting of each curve was done using SigmaPlot with the Four Parameter Logistic Function and the IC50 calculated. […] All tested compounds were reconstituted to stock solution in water.
(§3) The diluent for all the tested compounds, protein and substrate (except KLK7, which was done with 10 mM Tris pH 7.8) was 1xPBS pH 8.0–8.9. The serially diluted ligands were mixed with diluted bovine trypsin (Sigma, Dorset, U.K.) or activated KLK14, or KLK5, or activated KLK8 or matriptase (catalytic domain only, >90% purity by SDS-PAGE, endotoxin <0.1 ng/μg, R&D, Minneapolis, U.S.) or activated KLK7 or human neutrophil elastase (purified from human plasma, >95% purity by SDS-PAGE, Abcam, Cambridge, U.K.) or porcine pancreatic elastase 1 (Sigma, Dorset, U.K.) or human plasma kallikrein or human plasma plasmin (purified from human plasma, ≥95% purity by SDS-PAGE, BioVision, Milpitas, U.S.). 20μL of the ligand-protein mixture was pipetted to a well of a 96-well microplate in triplicates. The reaction was started by addition of 90–100 μL of the diluted substrate solution (contained 0.05% v/v Brij35) and the plate incubated at 25°C but 37°C for KLK7. RFU reading for each well was taken 6 minutes (trypsin) or 15 minutes (KLK14, KLK5, KLK8, matriptase, human neutrophil elastase, porcine pancreatic elastase 1, plasma kallikrein and plasmin) or 20 hours (KLK7) after substrate addition.
There are two previously reported Km values for KLK5 and its substrate Boc-VPR-AMC which allowed the IC50 to Ki conversion. Ki values were calculated according to the Cheng-Prusoff equation Ki= IC50/1+[S]/Km for single site competitive binding.

[2] = target: T2, KLK14 (Homo sapiens, UniProt Q9P0G3); assay: biochemical; format: biochemical
T2 construct: purchased R&D
T2 sequence (Q9P0G3 25-251): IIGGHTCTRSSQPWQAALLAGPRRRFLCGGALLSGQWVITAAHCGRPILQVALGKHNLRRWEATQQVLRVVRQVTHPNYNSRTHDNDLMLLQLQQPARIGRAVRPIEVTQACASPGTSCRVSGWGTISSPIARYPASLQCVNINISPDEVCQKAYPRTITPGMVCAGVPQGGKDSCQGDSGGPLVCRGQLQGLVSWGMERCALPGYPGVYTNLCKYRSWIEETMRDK
Protocol: as §1, with “The excitation/emission wavelength was 360/460 nm for the substrate Boc-VPR-AMC (Bachem AG, Hauptstrasse, Switzerland) and MeOSuc-AAPV-AMC (Bachem AG, Hauptstrasse, Switzerland) and 485/520 nm for BODIPY_FL casein (Invitrogen, Carlsbad, US).” left out
as §2
KLK7 and KLK14 were activated by addition of 1 mM f/c CaCl2 (Sigma, Dorset, U.K.), 0.05% v/v Brij35 (Sigma, Dorset, U.K.), 20 nM f/c thermolysin (Sigma, Dorset, U.K.) and incubated at 37°C for 1 hour. The reaction was stopped by addition of ethylenediaminetetraacetic acid (EDTA, 50 mM f/c). […] The RFU value reached by the thermolysin control was used as the minimum RFU for calculating the % of inhibition for KLK7.
The diluent for all the tested compounds, protein and substrate (except KLK7, which was done with 10 mM Tris pH 7.8) was 1xPBS pH 8.0–8.9. […] 20μL of the ligand-protein mixture was pipetted to a well of a 96-well microplate in triplicates. The reaction was started by addition of 90–100 μL of the diluted substrate solution (contained 0.05% v/v Brij35) and the plate incubated at 25°C but 37°C for KLK7. RFU reading for each well was taken 6 minutes (trypsin) or 15 minutes (KLK14, KLK5, KLK8, matriptase, human neutrophil elastase, porcine pancreatic elastase 1, plasma kallikrein and plasmin) or 20 hours (KLK7) after substrate addition.

[3] = target: T3, Human Neutrophil Elastase (Homo sapiens, UniProt P08246); assay: Human neutrophil elastase inhibition, MeOSuc-AAPV-AMC assay; format: biochemical; settings: read-out: % inhibition of Human Neutrophil Elastase
T3 construct: human neutrophil elastase (purified from human plasma); purchased Abcam; host or cells: human plasma (so in the source)
T3 sequence (P08246 30-247 limits assumed): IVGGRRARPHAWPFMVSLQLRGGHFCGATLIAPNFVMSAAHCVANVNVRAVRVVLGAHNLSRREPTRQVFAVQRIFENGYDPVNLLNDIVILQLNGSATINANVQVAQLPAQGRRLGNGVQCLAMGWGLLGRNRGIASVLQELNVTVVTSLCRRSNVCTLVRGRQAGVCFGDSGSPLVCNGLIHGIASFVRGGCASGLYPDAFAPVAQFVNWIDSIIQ
Protocol: as §1, §2, §3

[4] = target: Human Plasma Kallikrein (Homo sapiens, UniProt P03952); assay: Human plasma kallikrein inhibition, Boc-VPR-AMC assay; format: biochemical; settings: read-out: % inhibition of Human Plasma Kallikrein
Protocol: as §1, §2, §3

[5] = calculated from Table 3 IC50 by Cheng-Prusoff equation, read-out: Ki, KLK5 (converted)
[6] = enzyme 10 nM, Boc-VPR-AMC 42 μM, 1xPBS pH 8.0–8.9, 25°C, 15 minutes
[7] = at 10 μM, enzyme 10 nM, MeOSuc-AAPV-AMC 41 μM
[8] = at 10 μM, enzyme 14 nM, Boc-VPR-AMC 42 μM

Human Plasma Kallikrein, sequence (P03952 20-638): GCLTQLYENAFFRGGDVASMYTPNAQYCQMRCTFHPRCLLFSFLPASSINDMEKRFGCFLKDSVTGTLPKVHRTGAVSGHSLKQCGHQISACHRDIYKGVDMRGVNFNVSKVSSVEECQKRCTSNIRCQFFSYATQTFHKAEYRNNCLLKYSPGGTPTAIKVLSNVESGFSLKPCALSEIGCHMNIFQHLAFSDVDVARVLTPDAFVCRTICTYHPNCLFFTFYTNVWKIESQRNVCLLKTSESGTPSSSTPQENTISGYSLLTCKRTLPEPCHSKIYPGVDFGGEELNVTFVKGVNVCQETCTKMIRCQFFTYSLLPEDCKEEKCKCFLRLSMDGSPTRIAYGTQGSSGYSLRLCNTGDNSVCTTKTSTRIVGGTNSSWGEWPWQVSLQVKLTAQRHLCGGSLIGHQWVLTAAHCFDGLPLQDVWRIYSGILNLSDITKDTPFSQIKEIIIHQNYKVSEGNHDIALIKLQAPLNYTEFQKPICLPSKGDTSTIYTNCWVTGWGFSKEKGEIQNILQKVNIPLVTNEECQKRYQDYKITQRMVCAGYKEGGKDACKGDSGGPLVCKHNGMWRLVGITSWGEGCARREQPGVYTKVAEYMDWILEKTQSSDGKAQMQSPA

| SMILES | IC50 [1] | Ki [1] | IC50 [2] | inhibition at 10 µM [3] | inhibition at 10 µM [4] | Ki [1, 5] | IC50 [1, 6] | IC50 ([2]; enzyme 10 nM, Boc-VPR-AMC 45 μM, 25°C, 15 minutes) | fold potency drop on KLK14 compared to native SFTI ([2]; from Table 3 IC50) | inhibition at 10 µM [3, 7] | inhibition at 10 µM [4, 8] |
| --- | --- | --- | --- | --- | --- | --- | --- | --- | --- | --- | --- |
| CC[C@H](C)[C@@H]1NC(=O)[C@H](CO)NC(=O)[C@H](CCCNC(=N)N)NC(=O)[C@H]([C@@H](C)O)NC(=O)[C@@H]2CSSC[C@H](NC(=O)[C@H](Cc3c[nH]cn3)NC(=O)[C@@H]3CCCN3C(=O)[C@@H]3CCCN3C1=O)C(=O)N[C@@H](Cc1c[nH]c3ccccc13)C(=O)N1CCC[C@H]1C(=O)N[C@@H](CC(=O)O)C(=O)NCC(=O)N[C@@H](CCCNC(=N)N)C(=O)N2 [Analogue 6] (cyclo(CTRSIPPHCWPDGR); disulfide 1-9) | 56 ± 0.5 nM | 51 nM | 24 ± 2 nM | 0% | 15% |  |  |  |  |  |  |
| CC[C@H](C)[C@@H]1NC(=O)[C@H](CO)NC(=O)[C@H](CCCCN)NC(=O)[C@H]([C@@H](C)O)NC(=O)[C@@H]2CSSC[C@H](NC(=O)[C@H](Cc3c[nH]cn3)NC(=O)[C@@H]3CCCN3C(=O)[C@@H]3CCCN3C1=O)C(=O)N[C@@H](Cc1c[nH]c3ccccc13)C(=O)N1CCC[C@H]1C(=O)N[C@@H](CC(=O)O)C(=O)NCC(=O)N[C@@H](CCCNC(=N)N)C(=O)N2 [Analogue 2] (cyclo(CTKSIPPHCWPDGR); disulfide 1-9) |  |  | 85 ± 6 nM | 0% | 0% |  |  |  |  |  |  |
| CC[C@H](C)[C@@H]1NC(=O)[C@H](CO)NC(=O)[C@H](CCCCN)NC(=O)[C@H]([C@@H](C)O)NC(=O)[C@@H]2CSSC[C@H](NC(=O)[C@H](Cc3c[nH]cn3)NC(=O)[C@@H]3CCCN3C(=O)[C@@H]3CCCN3C1=O)C(=O)N[C@@H](Cc1ccccc1)C(=O)N1CCC[C@H]1C(=O)N[C@@H](CC(=O)O)C(=O)NCC(=O)N[C@@H](CCCNC(=N)N)C(=O)N2 [Analogue I10H] (cyclo(CFPDGRCTKSIPPH); disulfide 1-7) |  |  |  |  |  | 478 nM | 523 ± 11 nM | 470 ± 47 nM | ~20 fold | 0% | 0% |
| CC[C@H](C)[C@@H]1NC(=O)[C@@H]2CCCN2C(=O)[C@@H]2CCCN2C(=O)[C@H]([C@@H](C)CC)NC(=O)[C@H](CO)NC(=O)[C@H](CCCCN)NC(=O)[C@H]([C@@H](C)O)NC(=O)[C@@H]2CSSC[C@H](NC1=O)C(=O)N[C@@H](Cc1ccccc1)C(=O)N1CCC[C@H]1C(=O)N[C@@H](CC(=O)O)C(=O)NCC(=O)N[C@@H](CCCNC(=N)N)C(=O)N2 [Native SFTI, Sunflower Trypsin Inhibitor 1, reference compound] |  |  |  |  |  | 210 nM | 230 ± 3 nM |  |  | 0% | 0% |
